{"source": "patent US3966944A", "about": "“10 (N-methyl-4-piperidylidene)-10H[1]-benzopyrano[3,2-b]-pyridine as an analgesic, anti-inflammatory and agent against type III hypersensitivity disease” (Abbott Laboratories, priority 1975, dated 1976)", "key": {"[1]": {"tested_on": "reverse passive Arthus reaction", "assay": "Reverse Passive Arthus Reaction (inhibition of the inflammatory lesion area)", "settings": "for % Inhibition of the Inflammatory Lesion Area: lesion excised 4 hours after Anti-B.S.A."}, "mice": {"tested_on": "mice", "assay": "Analgesic Activity - Mouse Writhing Method (0.5% acetic acid IP)", "type": "in vivo", "settings": "for Ave. No. of Writhes/Mouse (±S.D.): 20 minute period, control saline 34.8 (8.8)", "protocol": "Analgesic Activity of 10 (N-Methyl-4-Piperidylidene)-10H[1]-Benzopyrano[3,2-b]-Pyridine -- Mouse Writhing Method\nModified method of Whittle (Brit. J. Pharmacol. 1964, 22:246) -- Groups of 5 mice administered various dose-levels of the compound 30 minutes prior to the IP injection of 0.5% acetic acid (0.4 ml). Writhing counted for a 20 minute period following the acid injection."}, "[2]": {"tested_on": "Carrageenin Induced Rat Paw Edema", "assay": "Carrageenin Induced Rat Paw Edema", "type": "in vivo, male Sprague-Dawley rats", "settings": "for % INCREASE IN PAW SIZE OVER NORMAL: 3 hr. reading, 0.5% MC control 89.3%", "protocol": "Carrageenin Induced Rat Paw Edema\nThe carrageenin induced rat paw edema test of Winter, et al. (Proc. Soc. Exp. Biol. and Med., 1962, 111:544) and modified by Van Arman, et al. (J. Pharmacol. Exp. Therap., 1965, 150:328) is used as a primary test for anti-inflammatory activity.\nGroups of male Sprague-Dawley rats weighing 160-220 grams are used to compare various dose levels of the test compound to control animals. The compound is administered orally to the respective groups 1 hour prior to a sub-plantar injection into the left hind paw with 0.1 ml of a 1.5% suspension of carrageenin in saline. The paws are measured volumetrically by mercury displacement prior to (normal paw), 1.5, 3 and 5 hours after the carrageenin injection.\nActivity is calculated as the percent difference (inhibition) between the increases in paw size (edema) of the test groups compared to the control groups."}}}
{"molecule": "CN(C)CCC(c1ccc(Cl)cc1)c1ccccn1", "note": "(racemic) [chlorpheninamine, reference compound]", "values": [{"measurement": "activity in the reverse passive Arthus reaction", "setting": "[1]; 10 mg/kg, P.O.", "result": "completely inactive"}]}
{"molecule": "CN1CCC(=C2c3ccccc3C=Cc3ccccc32)CC1", "note": "[cyproheptadine, reference compound]", "values": [{"measurement": "activity in the reverse passive Arthus reaction", "setting": "[1]; 5 mg/kg P.O.", "result": "completely inactive"}]}
{"molecule": "10 (N-methyl-4-piperidylidene)-10H[1]-benzopyrano[3,2-b]-pyridine [A-45637]", "values": [{"measurement": "Ave. No. of Writhes/Mouse (±S.D.)", "setting": "mice; 10 mg/kg oral", "result": "31.4 (16.7) Writhes/Mouse"}, {"measurement": "% Inhibition", "setting": "mice; 10 mg/kg oral, writhing, mice", "result": 9.8, "unit": "%"}, {"measurement": "Ave. No. of Writhes/Mouse (±S.D.)", "setting": "mice; 20 mg/kg oral", "result": "18.0 (8.3) Writhes/Mouse"}, {"measurement": "% Inhibition", "setting": "mice; 20 mg/kg oral, writhing, mice", "result": 48.3, "unit": "%"}, {"measurement": "Ave. No. of Writhes/Mouse (±S.D.)", "setting": "mice; 40 mg/kg oral", "result": "15.8 (8.0) Writhes/Mouse"}, {"measurement": "% Inhibition", "setting": "mice; 40 mg/kg oral, writhing, mice", "result": 54.6, "unit": "%"}, {"measurement": "Ave. No. of Writhes/Mouse (±S.D.)", "setting": "mice; 80 mg/kg oral", "result": "6.6 (4.6) Writhes/Mouse"}, {"measurement": "% Inhibition", "setting": "mice; 80 mg/kg oral, writhing, mice", "result": 81.0, "unit": "%"}, {"measurement": "ED50", "setting": "mice; P.O., mice, writhing, 95% CL (10.9-98.0)", "result": 29.7, "unit": "mg/kg"}, {"measurement": "% INCREASE IN PAW SIZE OVER NORMAL", "setting": "[2]; 2 mg/kg oral", "result": 66.9, "unit": "%"}, {"measurement": "% INHIBITION OF EDEMA (3 HR. READING)", "setting": "[2]; 2 mg/kg oral, rat", "result": 25.1, "unit": "%"}, {"measurement": "% INCREASE IN PAW SIZE OVER NORMAL", "setting": "[2]; 4 mg/kg oral", "result": 55.3, "unit": "%"}, {"measurement": "% INHIBITION OF EDEMA (3 HR. READING)", "setting": "[2]; 4 mg/kg oral, rat", "result": 38.1, "unit": "%"}, {"measurement": "% INCREASE IN PAW SIZE OVER NORMAL", "setting": "[2]; 8 mg/kg oral", "result": 50.0, "unit": "%"}, {"measurement": "% INHIBITION OF EDEMA (3 HR. READING)", "setting": "[2]; 8 mg/kg oral, rat", "result": 44.0, "unit": "%"}, {"measurement": "% INCREASE IN PAW SIZE OVER NORMAL", "setting": "[2]; 16 mg/kg oral", "result": 33.1, "unit": "%"}, {"measurement": "% INHIBITION OF EDEMA (3 HR. READING)", "setting": "[2]; 16 mg/kg oral, rat", "result": 62.9, "unit": "%"}, {"measurement": "ED25", "setting": "[2]; oral, rat, carrageenin paw edema, limits in parentheses", "result": "2.04 (0.34, 3.55)"}, {"measurement": "% Inhibition of the Inflammatory Lesion Area", "setting": "[1]; 0.75 mg/kg PO, rat", "result": 43.2, "unit": "%"}, {"measurement": "% Inhibition of the Inflammatory Lesion Area", "setting": "[1]; 1.5 mg/kg PO, rat", "result": 64.4, "unit": "%"}, {"measurement": "% Inhibition of the Inflammatory Lesion Area", "setting": "[1]; 2.5 mg/kg PO, rat", "result": 70.9, "unit": "%"}, {"measurement": "% Inhibition of the Inflammatory Lesion Area", "setting": "[1]; 5 mg/kg PO, rat", "result": 81.2, "unit": "%"}, {"measurement": "% Inhibition of the Inflammatory Lesion Area", "setting": "[1]; 10 mg/kg PO, rat", "result": 82.9, "unit": "%"}, {"measurement": "Calculated ED50 value", "setting": "[1]; PO, rat, printed limits (.07, 1.5)", "result": 0.78, "unit": "mg/kg"}]}
